Measurements published in article PMC11547513, “Design, Synthesis and Biological Activity Evaluation of β-Carboline Derivatives Containing Nitrogen Heterocycles” (Molecules, 2024).
Read-outs that look alike come from different tables or passages of the source.

Experiments:
[1] = system: PC-3 (human prostate cancer cell); test: MTT assay, in vitro cytotoxicity on PC-3
Source text: (§5) Cells were purchased from the Cell Bank of the Chinese Academy of Sciences (Kunming, China).

[2] = system: Hek-293T (human embryonic kidney cells); test: MTT assay, in vitro cytotoxicity on normal Hek-293T; conditions: read-out: Inhibitory Activity/% at 10 μM, Hek-293T
Source text: as §5

[3] = system: T47D (human breast cancer cell); test: MTT assay, in vitro cytotoxicity on T47D; conditions: for IC50: read-out: IC50 (Mean ± S.D.), T47D
Source text: as §5

[4] = system: A549 (human lung cancer cell); test: MTT assay, in vitro cytotoxicity on A549; conditions: for IC50: A549, read-out: IC50 (Mean ± S.D.), A549
Source text: as §5

[5] = Observation of water solubility / precipitation during the cell experiments; conditions: during antitumor activity measurement
[6] = system: K562 (human chronic myeloid leukemia cell); test: MTT assay, in vitro cytotoxicity on K562; conditions: Homo sapiens; for inhibition at 10 µM: K562, read-out: Inhibitory Activity/% at 10 μM, K562
Source text: as §5

PC-3 cells [7] = test: Intracellular ROS assay (DCFH-DA, flow cytometry); assay type: cell-based, human; conditions: 30 μM, 24 h; negative control MFI 19.8
Protocol: (§1) Apoptosis is an important target for antitumor therapy. To explore the antitumor mechanism of compound 8q, cell apoptosis was detected using flow cytometry. […] Moreover, reactive oxygen species (ROS) play a significant role in cell growth, differentiation and apoptosis. Excessive ROS can cause oxidative damage and lead to cell apoptosis. […]
(§2) a wound healing assay was performed using the method we previously reported1. In short, PC-3 cells were seeded in a six-well plate at a density of 10 × 105 and incubated at a constant temperature of 37 ℃ and 5% CO2 for 24 h. Then the pipette tip was used to create a uniform wound on the surface of cells. Subsequently, after cleaning twice with PBS, the scratch healing of the 8q treatment group and the positive drug treatment […]
(§3) was used to measure and quantify cell migration. […]
PC-3 cells were seeded in a six-well plate at a density of 3 × 105, and cultured at 37 ℃ and 5% CO2 for 24 h before adding 10 μM. […] After completion, the cells were immediately detected on the Flow Cytometry (Solarbio, Beijing, China). […]
at 37 ° C for 20 min. Subsequently, the staining solution was wash off with basic culture medium and detected the fluorescence intensity using the flow cytometer. The data was analyzed and obtained through Flow Jo and Prism 7.04 software. […]
(§4) The distribution of cycles was analyzed by Flow Jo and Prism 7.04 software. […]

PC-3 cells [8] = test: Annexin V-FITC/PI apoptosis, flow cytometry; assay type: cell-based, human; conditions: 30 μM
Source text: as §1
2.3.The effect of compound 8q on cell apoptosis
We used Annexin V-FITC/ PI double staining to evaluate cellular apoptosis via flow cytometry to figure out if apoptosis participates in the inhibition of cell growth.
PC-3 cells were seeded in a six-well plate at a density of 3 × 105, and cultured at 37 ℃ and 5% CO2 for 24 h before adding 10 μM. 20 μM and 30 μM compound 8q and 30 μM Harmine to each well. After 48 h, the cells were collected and stained and incubated flowing the manufacturer ’s protocol of the Annexin V-FITC/PI Apoptosis Detection Kit (Solarbio, Beijing, China). After completion, the cells were immediately detected on the Flow Cytometry (Solarbio, Beijing, China). The experimental results were processed using Flow Jo and Prism 7.04 software. […]

PC-3 cells [9] = test: Wound healing assay; assay type: cell-based, human; conditions: 30 μM, 24 h; control group 46.41%
Protocol: Given that cell migration plays a pivotal role in tumor cell invasion, to further validate the impact of compound 8q on PC-3 cell motility, a wound healing assay was conducted. […] These findings underscore the potent inhibitory effect of compound 8q on the motility of PC-3 cells. […]
as §2, §3

PC-3 cells [10] = test: Cell cycle assay (PI, flow cytometry); assay type: cell-based, human; conditions: 30 μM, 24 h
Protocol: To analyze the effect of compound 8q on cell cycle, the cycle of PC-3 cells was detected after being treated with compound 8q for 24 h (Figure 5). […] In addition, Cyclin D1, a cell cycle-related protein, is a key regulator of cycle progression, mainly regulating G1/S phase transition. […] In summary, compound 8q can arrest cells in the G0/G1 phase. […]
2.5. Cell cycle arrest of compound 8q on PC-3
To determine the effect of compound 8q on the cell cycle distribution of PC-3 cell, we used our previous method with slight modifications2. Briefly, cells were incubated in a six-well plate with a density of 3 × 105 at 37 ℃ and 5% CO2 for 24 h, followed by the addition of different concentrations of compound 8q for further incubation for 24 h.
Next, the cells were collected and washed twice with PBS. 75% anhydrous ethanol was used to immobilize the cells under overnight conditions at 4 ℃. Subsequently, PBS washed cells, and RNase from the cell cycle assay kit (Solarbio, Beijing, China) was added and incubated in a constant temperature (37 ℃) water bath for 30 min. Then PI was added under dark conditions and incubated at 4 ℃ for another half hour to detect.
as §4

**Q.** What does the source list for `COc1cc(-c2nc(-c3nnc(SCC(=O)N4CCN(c5ncccn5)CC4)o3)cc3c2[nH]c2ccccc23)cc(OC)c1OC` [Compound 8g]?
**A.** IC50 ([1]; Homo sapiens, read-out: IC50 (Mean ± S.D.), PC-3, average of three replicates): < 10 µM; inhibition at 10 µM ([1]; Homo sapiens, read-out: Inhibitory Activity/% at 10 μM, PC-3, Table 2 (8 series), 10 μM, average of three replicates, "/" means no anticancer activity): 45.4 ± 0.82%; IC50 ([1]; read-out: IC50 (Mean ± S.D.), PC-3, average of three replicates): 9.56 ± 1.43 µM; inhibition at 10 µM [2]: 29 ± 4.56%; IC50 [3]: > 40 µM; inhibition at 10 µM ([3]; read-out: Inhibitory Activity/% at 10 μM, T47D): 40.6 ± 4.48%; IC50 [4]: > 40 µM; inhibition at 10 µM ([4]; A549, read-out: Inhibitory Activity/% at 10 μM, A549): 35.8 ± 1.17%; Precipitation observed under microscopy [5]: precipitate crystals; IC50 ([6]; K562, read-out: IC50 (Mean ± S.D.), K562, average of three replicates): > 40 µM; inhibition at 10 µM [6]: 6.38 ± 0.52%

**Q.** What does the source list for `COc1ccc2c(c1)[nH]c1c(C)nccc12` [Harmine, reference compound]?
**A.** ROS mean fluorescence intensity (MFI) value (PC-3 cells [7]): 37.9; IC50 ([1]; Homo sapiens, read-out: IC50 (Mean ± S.D.), PC-3): 24.4 ± 4.45 µM; inhibition at 10 µM ([1]; Homo sapiens, read-out: Inhibitory Activity/% at 10 μM, PC-3): 14.5 ± 1.42%; inhibition at 10 µM [2]: 29.1 ± 3.19%; IC50 [3]: 38.5 ± 1.17 µM; inhibition at 10 µM ([3]; read-out: Inhibitory Activity/% at 10 μM, T47D, Table 1 (7 series), 10 μM, average of three replicates, "/" means no anticancer activity): 51.3 ± 4.58%; inhibition at 10 µM ([3]; read-out: Inhibitory Activity/% at 10 μM, T47D, Table 2 (8 series), 10 μM, average of three replicates, "/" means no anticancer activity): 48.8 ± 2.37%; Total apoptosis rate in PC-3 cells (PC-3 cells [8]; 48 h): 65.96%; Annexin V-FITC/PI flow cytometry quadrant Q1 (PC-3 cells [8]; Figure 4A): 0.21; Annexin V-FITC/PI flow cytometry quadrant Q2 (PC-3 cells [8]; Figure 4A): 35.4; Annexin V-FITC/PI flow cytometry quadrant Q3 (PC-3 cells [8]; Figure 4A): 34.2; Annexin V-FITC/PI flow cytometry quadrant Q4 (PC-3 cells [8]; Figure 4A): 30.2; Migration rate of PC-3 cells (PC-3 cells [9]): 21.51%; IC50 [4]: 25.9 ± 4.78 µM; inhibition at 10 µM ([4]; A549, read-out: Inhibitory Activity/% at 10 μM, A549, Table 1 (7 series), 10 μM, average of three replicates, "/" means no anticancer activity): 31 ± 2.81%; inhibition at 10 µM ([4]; A549, read-out: Inhibitory Activity/% at 10 μM, A549, Table 2 (8 series), 10 μM, average of three replicates, "/" means no anticancer activity): 31.2 ± 2.67%; Cell cycle distribution, S phase (PC-3 cells [10]; negative control 20.8%): 26.4%; Cell cycle distribution, G2/M phase (PC-3 cells [10]; negative control 23.6%): 49.0%; Cell cycle distribution, G0/G1 phase (PC-3 cells [10]; negative control 50.6%): 17.3%; IC50 ([6]; K562, read-out: IC50 (Mean ± S.D.), K562): 15.7 ± 2.27 µM; inhibition at 10 µM [6]: 36 ± 2.77%
